Experimental data published in US12371428B2 (Exelixis, Inc., priority 2019, dated 2025).

What was measured:
[1] = target: Mer (phospho-Mer, MERTK-transfected 293A cells) (Homo sapiens (Human), UniProt Q12866); assay: Mer autophosphorylation ELISA in transient transfected 293A cells (Example H); format: cell-based; settings: cellular activity; Mer autophosphorylation ELISA in transient transfected 293A cells
Summary of the method: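 Human MERTK transiently transfected into 293A cells; compounds as 8-point dose curve in serum-free medium (0.3% DMSO final), 1 h. Lysates assayed by phospho-Mer sandwich ELISA against phospho-Mer standard; DMSO = 100%, reference inhibitor = 0% activity; IC50 from 4-parameter logistic fit.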

[2] = target: Human KDR (residues 790-1356) (Homo sapiens (Human), UniProt P35968); assay: Human KDR kinase assay, HTRF KinEase (Example B-2); format: biochemical; settings: protocol of Example B-2 (other compounds)
Human KDR (residues 790-1356), sequence (P35968 790-1356): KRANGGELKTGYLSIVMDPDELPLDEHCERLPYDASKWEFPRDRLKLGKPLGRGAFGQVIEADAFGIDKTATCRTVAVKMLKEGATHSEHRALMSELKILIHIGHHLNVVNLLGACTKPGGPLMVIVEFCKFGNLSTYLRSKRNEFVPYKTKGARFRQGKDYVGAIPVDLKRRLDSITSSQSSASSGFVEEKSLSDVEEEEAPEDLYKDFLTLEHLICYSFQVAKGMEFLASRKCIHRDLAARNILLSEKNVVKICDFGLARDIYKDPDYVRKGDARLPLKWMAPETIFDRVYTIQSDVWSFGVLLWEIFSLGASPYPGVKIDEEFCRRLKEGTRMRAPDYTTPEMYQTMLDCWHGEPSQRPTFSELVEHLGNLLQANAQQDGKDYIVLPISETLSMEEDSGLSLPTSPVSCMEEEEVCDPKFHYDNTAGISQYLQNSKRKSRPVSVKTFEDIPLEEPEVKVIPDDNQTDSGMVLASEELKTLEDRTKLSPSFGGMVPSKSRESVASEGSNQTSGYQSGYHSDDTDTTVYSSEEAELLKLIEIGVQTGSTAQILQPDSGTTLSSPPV
Summary of the method: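 Human KDR residues 790-1356 (0.1 ng/well) in buffer with 5 mM MgCl2, 1 mM MnCl2, 1 mM DTT, biotinylated peptide substrate, ATP at Km (4.0 μM), 3% DMSO, 10 compound concentrations; 40 min, room temperature. EDTA stop, streptavidin-XL665/Eu-TK antibody HTRF read 665/620 nm; 4-parameter IC50.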

[3] = target: Human MET (residues 956-1390) (Homo sapiens (Human), UniProt P08581); assay: Human Met kinase assay, HTRF KinEase (Example D-2); format: biochemical; settings: protocol of Example D-2 (other compounds); read-out: c-Met IC50
Human MET (residues 956-1390), sequence (P08581 956-1390): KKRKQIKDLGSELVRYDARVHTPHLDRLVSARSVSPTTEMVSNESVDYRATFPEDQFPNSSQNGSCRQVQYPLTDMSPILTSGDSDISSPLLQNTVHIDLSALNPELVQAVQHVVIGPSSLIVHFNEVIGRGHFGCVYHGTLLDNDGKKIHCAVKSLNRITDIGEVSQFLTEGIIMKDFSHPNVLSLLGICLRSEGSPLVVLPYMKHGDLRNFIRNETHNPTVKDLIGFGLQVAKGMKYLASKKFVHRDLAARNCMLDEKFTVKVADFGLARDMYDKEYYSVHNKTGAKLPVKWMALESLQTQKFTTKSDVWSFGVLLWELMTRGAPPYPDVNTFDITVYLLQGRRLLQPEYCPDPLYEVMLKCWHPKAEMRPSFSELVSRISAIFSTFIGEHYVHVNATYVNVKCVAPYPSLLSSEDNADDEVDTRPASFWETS
Summary of the method: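 HTRF KinEase assay on MET residues 956-1390 (0.1 ng/well) in buffer with 5 mM MgCl2, 1 mM DTT and 1 mM MnCl2, with biotinylated peptide substrate, ATP at Km, 10 compound concentrations and 3% DMSO final, run 40 min at room temperature. The […] signal was normalized to DMSO and to 1 μM reference compound, and IC50 came from a 4-parameter logistic fit.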

[4] = target: Human MER (residues 528-999) (Homo sapiens (Human), UniProt Q12866); assay: Human Mer kinase assay, HTRF KinEase (Example C-2); format: biochemical; settings: protocol of Example C-2 (other compounds)
Human MER (residues 528-999), sequence (Q12866 528-999): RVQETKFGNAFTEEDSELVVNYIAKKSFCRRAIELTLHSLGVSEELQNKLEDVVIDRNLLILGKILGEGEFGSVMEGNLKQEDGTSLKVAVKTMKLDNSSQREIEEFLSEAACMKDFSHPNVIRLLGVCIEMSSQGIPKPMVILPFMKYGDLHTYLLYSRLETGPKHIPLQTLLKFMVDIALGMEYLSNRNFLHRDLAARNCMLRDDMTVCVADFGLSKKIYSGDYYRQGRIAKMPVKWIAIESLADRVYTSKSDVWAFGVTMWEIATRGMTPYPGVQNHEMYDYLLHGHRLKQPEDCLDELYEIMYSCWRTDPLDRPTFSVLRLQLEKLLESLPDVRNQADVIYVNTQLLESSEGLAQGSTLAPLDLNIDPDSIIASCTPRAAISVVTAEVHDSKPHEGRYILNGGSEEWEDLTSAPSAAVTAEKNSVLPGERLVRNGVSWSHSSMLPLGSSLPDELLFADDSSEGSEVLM
Summary of the method: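 HTRF KinEase TK assay with MER 528-999 (1 ng/well) in enzymatic buffer plus 5 mM MgCl2 and 1 mM DTT, biotinylated peptide substrate and ATP at Km (40 μM), 3% DMSO final, 60 min at room temperature. Stopped with EDTA detection mix (SA-XL665, TK antibody-Eu3+), read at 665/620 nm after 60 min; IC50 from 10-point 4-parameter fit, normalized to DMSO and 1 μM reference.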

Mer (phospho-Mer, MERTK-transfected 293A cells), sequence (Q12866 21-999): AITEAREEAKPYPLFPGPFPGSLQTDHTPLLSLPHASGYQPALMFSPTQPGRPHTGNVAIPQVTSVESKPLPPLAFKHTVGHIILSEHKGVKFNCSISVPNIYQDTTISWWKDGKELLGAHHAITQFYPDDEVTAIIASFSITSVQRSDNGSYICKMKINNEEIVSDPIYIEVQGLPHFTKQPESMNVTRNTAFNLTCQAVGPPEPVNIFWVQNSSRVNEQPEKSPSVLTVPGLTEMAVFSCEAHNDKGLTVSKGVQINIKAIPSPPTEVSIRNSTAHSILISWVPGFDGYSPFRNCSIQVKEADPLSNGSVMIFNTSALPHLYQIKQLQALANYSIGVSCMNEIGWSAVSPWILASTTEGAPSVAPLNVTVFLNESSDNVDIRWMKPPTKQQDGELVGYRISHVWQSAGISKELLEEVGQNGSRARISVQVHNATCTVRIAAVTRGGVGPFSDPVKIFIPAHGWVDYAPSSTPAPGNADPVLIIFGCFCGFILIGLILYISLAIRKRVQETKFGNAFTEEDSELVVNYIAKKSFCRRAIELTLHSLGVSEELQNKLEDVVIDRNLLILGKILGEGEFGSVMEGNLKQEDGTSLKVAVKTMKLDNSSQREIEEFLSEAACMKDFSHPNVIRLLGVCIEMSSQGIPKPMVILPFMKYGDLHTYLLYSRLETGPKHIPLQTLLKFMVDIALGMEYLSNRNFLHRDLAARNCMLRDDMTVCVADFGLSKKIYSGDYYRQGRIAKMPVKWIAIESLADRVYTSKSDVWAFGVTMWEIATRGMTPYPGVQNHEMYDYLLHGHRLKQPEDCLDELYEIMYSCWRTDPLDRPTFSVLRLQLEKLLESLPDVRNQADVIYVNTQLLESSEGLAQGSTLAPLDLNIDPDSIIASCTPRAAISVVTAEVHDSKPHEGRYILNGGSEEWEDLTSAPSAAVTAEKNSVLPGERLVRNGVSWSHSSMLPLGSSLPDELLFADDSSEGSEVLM

Row | SMILES | IC50 [1] [nM] | IC50 [2] [nM] | IC50 [3] [nM] | IC50 [4] [nM]
1 | COc1cc2nccc(Oc3ccc(NC(=O)c4cn(C5(C(F)(F)F)CC5)cc(-c5ccc(F)cc5)c4=O)cc3F)c2nc1OC [Compound 59, N-[4-[(6,7-Dimethoxy-1,5-naphthyridin-4-yl)oxy]-3-fluorophenyl]-5-(4-fluorophenyl)-4-oxo-1-[1-(trifluoromethyl)cyclopropyl]pyridine-3-carboxamide] | < 100 | 100 to 300 | < 100 | < 100
2 | COc1cc2nccc(Oc3ccc(NC(=O)c4cn(-c5cnn(C(F)F)c5)cc(-c5ccc(F)cc5)c4=O)cc3F)c2nc1OC [Compound 60, 1-[1-(Difluoromethyl)pyrazol-4-yl]-N-[4-[(6,7-dimethoxy-1,5-naphthyridin-4-yl)oxy]-3-fluorophenyl]-5-(4-fluorophenyl)-4-oxopyridine-3-carboxamide] | < 100 | > 300 | < 100 | < 100
3 | COc1cc2nccc(Oc3ccc(NC(=O)c4cn(-c5cc[nH]n5)cc(-c5ccc(F)cc5)c4=O)cc3F)c2nc1OC [Compound 61, N-[4-[(6,7-Dimethoxy-1,5-naphthyridin-4-yl)oxy]-3-fluorophenyl]-5-(4-fluorophenyl)-4-oxo-1-(1H-pyrazol-3-yl)pyridine-3-carboxamide] | < 100 | > 300 | < 100 | < 100
4 | COc1cc2nccc(Oc3ccc(NC(=O)c4cn(-c5cn[nH]c5)cc(-c5ccc(F)cc5)c4=O)cc3F)c2nc1OC [Compound 62, N-[4-[(6,7-Dimethoxy-1,5-naphthyridin-4-yl)oxy]-3-fluorophenyl]-5-(4-fluorophenyl)-4-oxo-1-(1H-pyrazol-4-yl)pyridine-3-carboxamide] | < 100 | > 300 | < 100 | < 100
5 | COc1cc2nccc(Oc3ccc(NC(=O)c4cn(C)c(C)c(-c5ccc(F)cc5)c4=O)cc3)c2nc1OC [Compound 65, N-[4-[(6,7-Dimethoxy-1,5-naphthyridin-4-yl)oxy]phenyl]-5-(4-fluorophenyl)-1,6-dimethyl-4-oxopyridine-3-carboxamide] | < 100 | < 100 | < 100 | < 100
6 | COc1cnc2c(Oc3ccc(NC(=O)c4c(C)nc(C)c(-c5ccc(F)cc5)c4O)cc3F)ccnc2c1 [Compound 66, N-[3-Fluoro-4-[(7-methoxy-1,5-naphthyridin-4-yl)oxy]phenyl]-5-(4-fluorophenyl)-4-hydroxy-2,6-dimethylpyridine-3-carboxamide] | < 100 | < 100 | < 100 | < 100
7 | COc1ccc2nccc(Oc3ccc(NC(=O)c4c(C)nc(C)c(-c5ccc(F)cc5)c4O)cc3F)c2n1 [Compound 67, N-[3-Fluoro-4-[(6-methoxy-1,5-naphthyridin-4-yl)oxy]phenyl]-5-(4-fluorophenyl)-4-hydroxy-2,6-dimethylpyridine-3-carboxamide] | < 100 | < 100 | < 100 | < 100

Other lines, results leading:

Row | IC50 [1] [nM] | IC50 [2] [nM] | IC50 [3] [nM] | IC50 [4] [nM] | SMILES
8 | < 100 | > 300 | < 100 | < 100 | COc1cc2nccc(Oc3ccc(NC(=O)c4cn(C(C)(C)C)cc(-c5ccc(F)cc5)c4=O)cc3F)c2nc1OC [Compound 48, 1-tert-Butyl-N-[4-[(6,7-dimethoxy-1,5-naphthyridin-4-yl)oxy]-3-fluorophenyl]-5-(4-fluorophenyl)-4-oxopyridine-3-carboxamide]
9 | < 100 | > 300 | < 100 | < 100 | COc1cc2nccc(Oc3ccc(NC(=O)c4cn(-c5ccn(C)n5)cc(-c5ccc(F)cc5)c4=O)cc3F)c2nc1OC [Compound 53, N-[4-[(6,7-Dimethoxy-1,5-naphthyridin-4-yl)oxy]-3-fluorophenyl]-5-(4-fluorophenyl)-1-(1-methylpyrazol-3-yl)-4-oxopyridine-3-carboxamide]
10 | < 100 | < 100 | < 100 | < 100 | COc1cc2nccc(Oc3ccc(NC(=O)c4cn(C)c(C)c(-c5ccc(F)cc5)c4=O)cc3F)c2nc1OC [Compound 58, N-[4-[(6,7-Dimethoxy-1,5-naphthyridin-4-yl)oxy]-3-fluorophenyl]-5-(4-fluorophenyl)-1,6-dimethyl-4-oxopyridine-3-carboxamide]
11 | < 100 | < 100 | < 100 | < 100 | CCn1cc(C(=O)Nc2ccc(Oc3ccnc4cc(OC)c(OC)nc34)c(F)c2)c(=O)c(-c2ccc(F)cc2)c1C [Compound 63, N-[4-[(6,7-Dimethoxy-1,5-naphthyridin-4-yl)oxy]-3-fluorophenyl]-1-ethyl-5-(4-fluorophenyl)-6-methyl-4-oxopyridine-3-carboxamide]
12 | < 100 | < 100 | < 100 | < 100 | COc1cnc2c(Oc3ccc(NC(=O)c4cnc(C)c(-c5ccc(F)cc5)c4O)cc3F)ccnc2c1 [Compound 64, N-[3-Fluoro-4-[(7-methoxy-1,5-naphthyridin-4-yl)oxy]phenyl]-5-(4-fluorophenyl)-4-hydroxy-6-methylpyridine-3-carboxamide]
13 | < 100 | < 100 | < 100 | < 100 | COCCOc1nc2c(Oc3ccc(NC(=O)c4cnc(C)c(-c5ccc(F)cc5)c4O)cc3F)ccnc2cc1OC [Compound 68, N-[3-Fluoro-4-[[7-methoxy-6-(2-methoxyethoxy)-1,5-naphthyridin-4-yl]oxy]phenyl]-5-(4-fluorophenyl)-4-hydroxy-6-methylpyridine-3-carboxamide]
14 | < 100 | < 100 | < 100 | < 100 | COc1cc2nccc(Oc3ccc(NC(=O)c4cnc(C)c(-c5ccc(F)cc5C)c4O)cc3F)c2nc1OC [Compound 69, N-[4-[(6,7-Dimethoxy-1,5-naphthyridin-4-yl)oxy]-3-fluorophenyl]-5-(4-fluoro-2-methylphenyl)-4-hydroxy-6-methylpyridine-3-carboxamide]
15 | < 100 | 100 to 300 | < 100 | < 100 | COc1ccc2nccc(Oc3ccc(NC(=O)c4c(C)nc(C)c(-c5ccc(F)cc5C)c4O)cc3F)c2n1 [Compound 70, N-[3-Fluoro-4-[(6-methoxy-1,5-naphthyridin-4-yl)oxy]phenyl]-5-(4-fluoro-2-methylphenyl)-4-hydroxy-2,6-dimethylpyridine-3-carboxamide]
16 | < 100 | < 100 | < 100 | < 100 | COc1cc2nccc(Oc3ccc(NC(=O)c4cnc(CO)c(-c5ccc(F)cc5)c4O)cc3F)c2nc1OC [Compound 71, N-[4-[(6,7-Dimethoxy-1,5-naphthyridin-4-yl)oxy]-3-fluorophenyl]-5-(4-fluorophenyl)-4-hydroxy-6-(hydroxymethyl)pyridine-3-carboxamide]
17 | < 100 | 100 to 300 | < 100 | < 100 | COc1cc2nccc(Oc3ccc(NC(=O)c4cn(C)c(CO)c(-c5ccc(F)cc5)c4=O)cc3F)c2nc1OC [Compound 72, N-[4-[(6,7-Dimethoxy-1,5-naphthyridin-4-yl)oxy]-3-fluorophenyl]-5-(4-fluorophenyl)-6-(hydroxymethyl)-1-methyl-4-oxopyridine-3-carboxamide]
